Measurements published in patent publication US9504251B2, “Pesticidal compositions and related methods” (Dow AgroSciences LLC, priority 2014, dated 2016).
Like-named read-outs stand apart in the source and are kept apart here.

Columns and labels:
[1] = test system: Green Peach Aphid (Myzus persicae) (GPA) (MYZUPE); assay: Green peach aphid (GPA) foliar spray bioassay on cabbage seedlings; format: in vivo; settings: 72 h, 200 ppm foliar spray on cabbage seedlings, graded after three days, read-out: GPA % Control (or Mortality) rating
Protocol: Bioassay for GPA was prepared as follows: Cabbage seedlings grown in 3-inch pots, with 2-3 small (3-5 cm) true leaves, were used as test substrate. The seedlings were infested with 20-50 GPA (adult and nymph stages) one day prior to chemical application. Four pots with individual seedlings were used for each treatment. The tested compounds (2 mg) were dissolved in 2 mL of acetone/methanol (1:1) solvent to form stock solutions of 1000 ppm tested compound. The stock solutions were diluted five times with an aqueous solution containing 0.025% TWEEN® 20 surfactant, which is polyoxyethylene (20) sorbitan monolaurate, to obtain the solution at 200 ppm tested compound. A hand-held aspirator-type sprayer was used for spraying the solution to both sides of cabbage leaves until runoff. The control plants (solvent check) were sprayed with the diluent only containing 20% by volume of acetone/methanol (1:1) solvent. Treated plants were held in a holding room for three days at approximately 25° C. and ambient relative humidity (RH) prior to grading. Evaluation was conducted by counting the number of live aphids per plant under a microscope. Percent control was measured by using Abbott's correction formula (W. S. Abbott, “A Method of Computing the Effectiveness of an Insecticide,” J. Econ. Entomol. 18 (1925), pp. 265-267) as follows. Corrected % Control=100*(X−Y)/X
X=No. of live aphids on solvent check plants and
Y=No. of live aphids on treated plants
(§1) The comparative compounds were tested for insecticidal activities against GPA and WF pests using the same test protocols described above for the disclosed compounds.

[2] = test system: Sweetpotato Whitefly-crawler (Bemisia tabaci) (WF) (BEMITA); assay: Sweetpotato whitefly-crawler (WF) foliar spray assay on cotton plants; format: in vivo; settings: 216 h, 200 ppm foliar spray on cotton plants, graded after 9 days, read-out: WF % Control (or Mortality) rating
Protocol: Foliar spray assay for WF was prepared as follows: Cotton plants (Gossypium hirsutum) grown in 3-inch pots, with 1 small (4-5 cm) true leaf, were used as test substrate. The plants were infested with 200-400 whitefly eggs 4-5 days prior to chemical application. Four pots with individual plants were used for each treatment. Tested compounds (2 mg) were dissolved in 1 mL of acetone solvent, forming stock solutions of 2000 ppm tested compound.
The stock solutions were diluted ten times with 0.025% TWEEN® 20 surfactant in H2O (diluents) to obtain the solution at 200 ppm tested compound. A hand-held aspirator-type sprayer was used for spraying the solution to both sides of cotton leaves until runoff. The control plants (solvent check) were sprayed with the diluent only containing 10% by volume of acetone solvent. Treated plants were held in a holding room for 9 days at approximately 25° C. and ambient relative humidity (RH) prior to grading. Evaluation was conducted by counting the number of live 3-4 nymph stage per plant under a microscope. Percent control was measured by using Abbott's correction formula (W. S. Abbott, “A Method of Computing the Effectiveness of an Insecticide,” J. Econ. Entomol. 18 (1925), pp. 265-267) as follows. Corrected % Control=100*(X−Y)/X
X=No. of live nymphs on solvent check plants and
Y=No. of live nymphs on treated plants.
as §1

[3] = Abbott-corrected % control, disclosed compounds (TABLE 2)
[4] = same protocol, comparative compounds (TABLE 3)

O=C1c2cn(-c3cccnc3)nc2CCN1CC1CC1 [Compound F1, 5-(cyclopropylmethyl)-2-(pyridin-3-yl)-6,7-dihydro-2H-pyrazolo[4,3-c]pyridin-4(5H)-one]
mortality at 200 ppm [1, 3]: 80 to 100% | mortality at 200 ppm [2, 3]: 80 to 100%

O=C1c2cn(-c3cccnc3)nc2CCN1CC(=NOCc1ccccc1)c1cccc(C(F)(F)F)c1 (single isomer, unassigned) [Compound P38, 5-(2-((benzyloxy)imino)-2-(3-(trifluoromethyl)phenyl)ethyl)-2-(pyridin-3-yl)-2,5,6,7-tetrahydro-4H-pyrazolo[4,3-c]pyridin-4-one]
mortality at 200 ppm [1, 3]: 0 to 80% | mortality at 200 ppm [2, 3]: 0 to 80%

O=C1c2cn(-c3ccccn3)nc2CCN1c1cccc(C(F)(F)F)n1 [Compound CE5, reference compound]
mortality at 200 ppm [1, 4]: < 0% | mortality at 200 ppm [2, 4]: < 0%

O=C1c2cn(-c3cccnc3)nc2CCN1Cc1ccc(C(F)(F)F)cc1 [Compound F50, 2-(3-Pyridyl)-5-[[4-(trifluoromethyl)phenyl]methyl]-6,7-dihydropyrazolo[4,3-c]pyridine-4-one]
mortality at 200 ppm [1, 3]: 80 to 100% | mortality at 200 ppm [2, 3]: 0 to 80%

O=C1c2cn(-c3cccnc3)nc2CCN1Cc1ccccc1F [Compound F17, 5-(2-fluorobenzyl)-2-(pyridin-3-yl)-6,7-dihydro-2H-pyrazolo[4,3-c]pyridin-4(5H)-one]
mortality at 200 ppm [1, 3]: 0 to 80% | mortality at 200 ppm [2, 3]: 80 to 100%

CC(CN1CCc2nn(-c3cccnc3)cc2C1=O)=NOCc1ccccc1 (single isomer, unassigned) [Compound P31, 5-(2-((benzyloxy)imino)propyl)-2-(pyridin-3-yl)-2,5,6,7-tetrahydro-4H-pyrazolo[4,3-c]pyridin-4-one]
mortality at 200 ppm [1, 3]: 80 to 100% | mortality at 200 ppm [2, 3]: 80 to 100%

O=C1c2cn(-c3cccnc3)nc2CCN1c1cccc(-c2ncccn2)n1 [Compound F38, 2-(3-Pyridyl)-5-(6-pyrimidin-2-yl-2-pyridyl)-6,7-dihydropyrazolo[4,3-c]pyridin-4-one]
mortality at 200 ppm [1, 3]: 0 to 80% | mortality at 200 ppm [2, 3]: < 0%

O=C1c2cn(-c3ccccn3)nc2CCN1c1cc(C(F)(F)F)ccn1 [Compound CE7, 2-(2-Pyridyl)-5-[4-(trifluoromethyl)-2-pyridyl]-6,7-dihydropyrazolo[4,3-c]pyridin-4-one, reference compound]
mortality at 200 ppm [1, 4]: 0 to 80% | mortality at 200 ppm [2, 4]: < 0%

O=C1c2cn(-c3ccccn3)nc2CCN1c1cccc(OC(F)(F)F)c1 [Compound CE4, 2-(2-Pyridyl)-5-[3-(trifluoromethoxy)phenyl]-6,7-dihydropyrazolo[4,3-c]pyridin-4-one, reference compound]
mortality at 200 ppm [1, 4]: < 0% | mortality at 200 ppm [2, 4]: < 0%

C=CCN1CCc2nn(-c3cccnc3)cc2C1=O [Compound F31, 5-allyl-2-(pyridin-3-yl)-6,7-dihydro-2H-pyrazolo[4,3-c]pyridin-4(5H)-one]
mortality at 200 ppm [1, 3]: 80 to 100% | mortality at 200 ppm [2, 3]: 0 to 80%

CSCN1CCc2nn(-c3ccccn3)cc2C1=O [Compound CE3, 5-(Methylsulfanylmethyl)-2-(2-pyridyl)-6,7-dihydropyrazolo[4,3-c]pyridin-4-one, reference compound]
mortality at 200 ppm [1, 4]: < 0% | mortality at 200 ppm [2, 4]: < 0%

CS(=O)(=O)CN1CCc2nn(-c3cccnc3)cc2C1=O [Compound F51, 5-((methylsulfonyl)methyl)-2-(pyridin-3-yl)-6,7-dihydro-2H-pyrazolo[4,3-c]pyridin-4(5H)-one]
mortality at 200 ppm [1, 3]: 80 to 100% | mortality at 200 ppm [2, 3]: 80 to 100%

O=C(CN1CCc2nn(-c3cccnc3)cc2C1=O)c1ccccc1 [Compound P18, 5-(2-oxo-2-phenylethyl)-2-(pyridin-3-yl)-2,5,6,7-tetrahydro-4H-pyrazolo[4,3-c]pyridin-4-one]
mortality at 200 ppm [1, 3]: 80 to 100% | mortality at 200 ppm [2, 3]: 80 to 100%

N#CCN1CCc2nn(-c3cccnc3)cc2C1=O [Compound F39, 2-[4-Oxo-2-(3-pyridyl)-6,7-dihydropyrazolo[4,3-c]pyridin-5-yl]acetonitrile]
mortality at 200 ppm [1, 3]: 80 to 100% | mortality at 200 ppm [2, 3]: 0 to 80%

CON=C(CN1CCc2nn(-c3cccnc3)cc2C1=O)c1ccccc1 (single isomer, unassigned) [Compound P32, 5-(2-(methoxyimino)-2-phenylethyl)-2-(pyridin-3-yl)-2,5,6,7-tetrahydro-4H-pyrazolo[4,3-c]pyridin-4-one]
mortality at 200 ppm [1, 3]: 80 to 100% | mortality at 200 ppm [2, 3]: 0 to 80%

O=C(CN1CCc2nn(-c3cccnc3)cc2C1=O)N1CCN(C2CCC2)CC1 [Compound F42, 5-[2-(4-Cyclobutylpiperazin-1-yl)-2-oxo-ethyl]-2-(3-pyridyl)-6,7-dihydropyrazolo[4,3-c]pyridin-4-one]
mortality at 200 ppm [1, 3]: 80 to 100% | mortality at 200 ppm [2, 3]: 80 to 100%

COc1ccccc1CN1CCc2nn(-c3cccnc3)cc2C1=O [Compound F15, 5-[(2-Methoxyphenyl)methyl]-2-(3-pyridyl)-6,7-dihydropyrazolo[4,3-c]pyridin-4-one]
mortality at 200 ppm [1, 3]: 0 to 80% | mortality at 200 ppm [2, 3]: 80 to 100%

CCOC(=O)CN1CCc2nn(-c3cccnc3)cc2C1=O [Compound F8, ethyl 2-(4-oxo-2-(pyridin-3-yl)-6,7-dihydro-2H-pyrazolo[4,3-c]pyridin-5(4H)-yl)acetate]
mortality at 200 ppm [1, 3]: 80 to 100% | mortality at 200 ppm [2, 3]: 80 to 100%

O=C1c2cn(-c3cccnc3)nc2CCN1c1ccc(OC(F)(F)F)cc1 [Compound F14, 2-(3-Pyridyl)-5-[4-(trifluoromethoxy)phenyl]-6,7-dihydropyrazolo[4,3-c]pyridin-4-one]
mortality at 200 ppm [1, 3]: 80 to 100% | mortality at 200 ppm [2, 3]: 0 to 80%

O=C1NCCc2nn(-c3ccccn3)cc21 [Compound CE1, 2-(pyridin-2-yl)-6,7-dihydro-2H-pyrazolo[4,3-c]pyridin-4(5H)-one, reference compound]
mortality at 200 ppm [1, 4]: < 0% | mortality at 200 ppm [2, 4]: 0 to 80%

O=C1c2cn(-c3cccnc3)nc2CCN1Cc1cccc(C(F)(F)F)c1 [Compound F29, 2-(3-Pyridyl)-5-[[3-(trifluoromethyl)phenyl]methyl]-6,7-dihydropyrazolo[4,3-c]pyridin-4-one]
mortality at 200 ppm [1, 3]: 80 to 100% | mortality at 200 ppm [2, 3]: 80 to 100%

CSCN1CCc2nn(-c3cccnc3)cc2C1=O [Compound F20, 5-(Methylsulfanylmethyl)-2-(3-pyridyl)-6,7-dihydropyrazolo[4,3-c]pyridin-4-one]
mortality at 200 ppm [1, 3]: 80 to 100% | mortality at 200 ppm [2, 3]: 80 to 100%

O=C1c2cn(-c3cccnc3)nc2CCN1c1cc(C(F)(F)F)ccn1 [Compound F7, 2-(3-Pyridyl)-5-[4-(trifluoromethyl)-2-pyridyl]-6,7-dihydropyrazolo[4,3-c]pyridin-4-one]
mortality at 200 ppm [1, 3]: 80 to 100% | mortality at 200 ppm [2, 3]: 80 to 100%

O=C1c2cn(-c3cccnc3)nc2CCN1c1ccccn1 [Compound F43, 5-(pyridin-2-yl)-2-(pyridin-3-yl)-6,7-dihydro-2H-pyrazolo[4,3-c]pyridin-4(5H)-one]
mortality at 200 ppm [1, 3]: 80 to 100% | mortality at 200 ppm [2, 3]: 0 to 80%

CON(C)C(=O)CN1CCc2nn(-c3cccnc3)cc2C1=O [Compound CA3, N-methoxy-N-methyl-2-(4-oxo-2-(pyridin-3-yl)-2,4,6,7-tetrahydro-5H-pyrazolo[4,3-c]pyridin-5-yl)acetamide]
mortality at 200 ppm [1, 3]: 80 to 100% | mortality at 200 ppm [2, 3]: 80 to 100%

O=C1c2cn(-c3cccnc3)nc2CCN1CC=NOCc1ccccc1 (racemic) [Compound P27, 2-(4-oxo-2-(pyridin-3-yl)-2,4,6,7-tetrahydro-5H-pyrazolo[4,3-c]pyridin-5-yl)acetaldehyde O-benzyl oxime]
mortality at 200 ppm [1, 3]: 80 to 100% | mortality at 200 ppm [2, 3]: 80 to 100%

COc1ccc(CN2CCc3nn(-c4cccnc4)cc3C2=O)cc1 [Compound F23, 5-[(4-Methoxyphenyl)methyl]-2-(3-pyridyl)-6,7-dihydropyrazolo[4,3-c]pyridin-4-one]
mortality at 200 ppm [1, 3]: 80 to 100% | mortality at 200 ppm [2, 3]: 80 to 100%
